What all share (experiment): inhibition of tumour cell growth, NCI panel, 48 h
For assay [1], the system named is SF-295 CNS.
Assay [2] relates to SF-539 CNS.
In assay [3] the test system is UACC-257 melanoma.
The subject of assay [4] is IGROV1 ovarian.
In assay [5] the test system is UACC-62 melanoma.
Assay [6] relates to HL-60(TB) leukemia.
For assay [7], the system named is K-562 leukemia.
Assay [8] relates to BT-549 breast.
The subject of assay [9] is MDA-MB-231 breast.
The test system of assay [10] is SR leukemia.

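Growth conditions: 96-well plates. Treatment: test compound, 48 hours, 5 concentrations. Analysis: linear interpolation between bracketing concentrations; unreached endpoints set to highest concentration. GI50 is the concentration that inhibits growth by half. TGI marks complete inhibition of growth.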 *1 amine or outer side, *2 acyl side, *3 side chain or, on linkers, in order; H or OH if unused. Where a SMILES comes first, the peptide text is derived from it. CO = O=C([*:1])[*:2]

Consider `O=C(CC1(O)C(=O)Nc2ccccc21)c1ccc(O)cc1O` (stereo unspecified), for which the TGI in assay [1], in assay [2], in [3], in [4], in [5] and in assay [6] was greater than 100 µM in each case. This compound also had a TGI in assay [7] greater than 100 µM.
`N#Cc1c(N)nc(N2CCOCC2)c(C#N)c1-c1cccc(O)c1`: the GI50 in assay [1] is greater than 100 µM; in [2], greater than 100 µM; in [8], 89.9 µM; in assay [9], 71.2 µM; in assay [3], greater than 100 µM; in assay [4], 18.7 µM. Also, the GI50 in assay [5] was 40.8 µM; in [7], greater than 100 µM. In addition, the TGI was greater than 100 µM in assay [1]; greater than 100 µM in [2]; greater than 100 µM in [8]; greater than 100 µM in assay [9]; greater than 100 µM in assay [3]; 61.2 µM in [4]. Moreover, the TGI in [5] and in [7] was greater than 100 µM in each case.
Take `CC(=O)[CH-]C(C)=O.CC(=O)[CH-]C(C)=O.CC(=O)[CH-]C(C)=O.[Cl-].[Hf+4]`: the GI50 in assay [10], in assay [1], in assay [2], in assay [3], in assay [4] and in assay [5] was greater than 100 µM in each case. The GI50 in assay [6] and in [7] was greater than 100 µM throughout. Further, the TGI in assay [10], in [1], in [2], in [3], in assay [4] and in assay [5] was greater than 100 µM throughout. Further, the TGI in [6] and in assay [7] was greater than 100 µM throughout.
Turning to `COc1ccc(C2c3cc4c(cc3OC(O)(CO)C2C(=O)O)OCO4)c(OC)c1OC` (stereo unspecified) (tested in a mixture with another compound), the TGI in [1], in [2], in assay [3], in [4], in [5] and in assay [6] was greater than 100 µM in each case. In addition, in assay [7], the TGI is greater than 100 µM.
On to `CC1(C)CC2=NOS3=C2C(=NO3)C1c1ccccn1` (stereo unspecified), for which the TGI in [10] was 81 µM; in assay [1], greater than 100 µM; in assay [2], greater than 100 µM; in assay [9] it was greater than 100 µM; in [3], greater than 100 µM; in assay [4], 84.5 µM. Besides, the TGI in assay [5] was greater than 100 µM; in [6] it was 51.7 µM; in assay [7], 62.8 µM.
In the case of `O=C(CCc1ccc(O)c(O)c1)c1ccc(O)c(O)c1O`, the TGI in assay [10] is greater than 100 µM; in [1], 36.7 µM; in assay [2], 37.7 µM; in [9] it was 55.5 µM; in [3], greater than 100 µM; in assay [4] it was greater than 100 µM. In addition, the TGI in assay [5] is greater than 100 µM; in assay [6], 32.6 µM; in assay [7], 66 µM.
`O=C(O/N=C1/CCC/C1=C\c1ccccc1)c1ccccc1`: the TGI in assay [10], in assay [1], in assay [2], in assay [3], in [4] and in assay [5] was greater than 100 µM each time. Besides, the TGI in [6] and in assay [7] was greater than 100 µM throughout.
As to `COc1ccc(C(=O)O)c2c(=O)c3ccccc3[nH]c12`, the TGI in assay [10], in [1], in assay [2], in assay [3], in assay [4] and in assay [5] was greater than 100 µM in each case. The TGI in assay [6] and in [7] was greater than 100 µM throughout.
With `O=C(/C=C/c1ccc2c(c1)OCO2)c1ccccc1`, the GI50 in [10] was 2.56 µM; in assay [1] it was 11.5 µM; in [2] it was 20.5 µM; in [9] it was 24.4 µM; in assay [3], 18.6 µM; in assay [4], 4.43 µM. Further, the GI50 is 16.3 µM in [5], 17.8 µM in assay [6] and 4.42 µM in [7]. For the same compound, the TGI in assay [10] came out at 13.9 µM; in [1], 28.8 µM; in assay [2], 54.5 µM; in assay [9] it was 75.6 µM; in [3], 39.5 µM; in assay [4], 27.7 µM. For the same compound, the TGI in assay [5] is 33.7 µM; in [6] it was 61.6 µM; in assay [7], greater than 100 µM.
For `CC(C)C(NC(=O)C(CCCN=C(N)N)NC(=O)NC(Cc1ccccc1)C(=O)O)C(=O)NC(C=O)CCCN=C(N)N` (stereo not drawn) ({Phe-CO}-Arg-Val-Arg-aldehyde; configuration not given here), the GI50 in assay [1], in [2], in [8], in [9], in assay [3] and in assay [4] was greater than 5 µM throughout. Also, the GI50 in assay [5] and in assay [7] was greater than 5 µM in each case. The TGI in [1], in [2], in [8], in assay [9], in assay [3] and in assay [4] was greater than 5 µM each time. The TGI in assay [5] and in assay [7] was greater than 5 µM in each case.
`CCOC(=O)c1ccc(C(O)CC(=O)OC(C)(C)C)[nH]1` (stereo unspecified): the GI50 in assay [10] is 22.4 µM; in assay [1], 29.7 µM; in assay [9], 13 µM; in assay [3] it was 40.8 µM; in assay [4] it was 12.4 µM; in [5], 26.5 µM. For the same compound, in [7], the GI50 was 52.6 µM. Also, the TGI in assay [10] was greater than 100 µM; in assay [1] it was 63.5 µM; in assay [9], greater than 100 µM; in assay [3], greater than 100 µM; in assay [4] it was 30.4 µM; in [5], 81.3 µM. Further, in assay [7], the TGI was greater than 100 µM.
For `Cn1cc(C(=O)/C(Cl)=C(\Cl)C(=O)O)c2ccccc21`, the TGI in assay [1], in assay [2], in assay [3], in assay [4], in assay [5] and in [6] was greater than 100 µM each time. The compound further came in with a TGI in assay [7] greater than 100 µM.
For the compound `CO/C=C/c1cc2c(cc1C(OC)OC)OCO2`, the TGI in assay [10] was greater than 100 µM; in assay [2], greater than 100 µM; in [3], greater than 100 µM; in [4] it was greater than 100 µM; in assay [5], 69.1 µM; in [6] it was 18.9 µM. Moreover, in [7], the TGI is greater than 100 µM.
Regarding `O=C1OC(c2ccccc2)(c2ccccc2)CC1CN1CCOCC1` (stereo unspecified), the TGI in assay [10] was 8.43 µM; in assay [2] it was 32.6 µM; in assay [3] it was 20.9 µM; in assay [4] it was greater than 100 µM; in assay [5], greater than 100 µM; in assay [6] it was 28.3 µM. The TGI in assay [7] was 78.7 µM.
For `N=c1oc2cc(O)c(O)cc2cc1C(N)=O`, the TGI in [1], in [2], in [3], in assay [4], in [5] and in assay [7] was greater than 100 µM in each case.
Regarding `Cc1ccc(NC(=O)/C(=N/NC(=O)CC#N)C2C(=O)N(c3ccccc3)N=C2N)cc1C` (stereo unspecified), the TGI in [10], in assay [1], in assay [2], in assay [3], in assay [4] and in [5] was greater than 100 µM in each case. For the same compound, the TGI in assay [6] and in assay [7] was greater than 100 µM each time.
For the compound `NC(=S)N/N=C1\C(=O)N(c2cccc([N+](=O)[O-])c2)C(=O)C1C(=O)Nc1cccc([N+](=O)[O-])c1` (stereo unspecified), the TGI in assay [1], in assay [2], in assay [3], in [4], in assay [5] and in assay [6] was greater than 100 µM each time. In assay [7], this compound returned a TGI greater than 100 µM.
With `C[C@]12CC[C@H]3[C@@H](CC=C4C[C@@H](O)CC[C@@]43C)[C@@H]1C/C(=C\c1cccc(OCCCn3ccnc3)c1)[C@@H]2O`, the GI50 is 6.67 µM in assay [10]; 6.8 µM in assay [1]; 8.01 µM in [2]; 13.2 µM in [9]; 13.1 µM in assay [3]; 16.8 µM in assay [4]. Further, the GI50 in [5] is 13.2 µM; in assay [6], 8.1 µM; in assay [7] it was 3.38 µM. For the same compound, the TGI in assay [10] was found to be 47.7 µM; in assay [1], 26.4 µM; in assay [2], 23.7 µM; in [9] it was 32 µM; in assay [3], 29.2 µM; in [4], 33.6 µM. The TGI in [5] was 29 µM; in [6], 34.3 µM; in [7], greater than 58.4 µM.
On to `COc1cc2c(cc1OCCCCCN1CCN(c3cc(=O)oc4c(C)c(OC)ccc34)CC1)N=C[C@@H]1CCCN1C2=O`, for which the GI50 is less than 0.0139 µM in assay [1]; less than 0.0112 µM in [2]; less than 0.0119 µM in [8]; less than 0.01 µM in assay [4]; less than 0.01 µM in assay [5]; less than 0.01 µM in assay [6]. The GI50 in [7] is less than 0.01 µM. Besides, the TGI in assay [1] was 2.42 µM; in [2], 0.128 µM; in assay [8], 0.155 µM; in assay [4], 0.0251 µM; in assay [5], 0.0147 µM; in assay [6] it was 1.2 µM. In addition, the TGI in assay [7] is 0.316 µM.
For the compound `NC1=NN(c2ccccc2)C(=O)C1C(=O)C(=O)Nc1cccc(C(F)(F)F)c1` (stereo unspecified), the TGI in [1], in [2], in assay [3], in [4], in assay [5] and in assay [6] was greater than 100 µM throughout. Further, in assay [7], the TGI is greater than 100 µM.
As for `CC(=O)Oc1cc2c(=O)oc3c(OC(C)=O)c(OC(C)=O)c(OC(C)=O)c4c(=O)oc(c1OC(C)=O)c2c34`, the TGI in assay [10] was greater than 100 µM; in assay [1] it was 52.9 µM; in assay [2] it was 75.5 µM; in assay [3], greater than 100 µM; in assay [4] it was greater than 100 µM; in assay [5], greater than 100 µM. For the same compound, the TGI in assay [6] and in assay [7] was greater than 100 µM each time.
Consider `CC1CC(C)C(=O)C(C(=O)CC2CC(=O)NC2=O)C1` (stereo unspecified), for which the TGI in assay [10], in assay [1], in assay [2], in [3], in [4] and in assay [5] was greater than 100 µM in each case. Further, the TGI in [6] and in assay [7] was greater than 100 µM throughout.
Consider `C/C(=N\[N+](C)(C)C)C(c1ccccc1)C1(c2ccccc2)C(c2ccccc2)=C1c1ccccc1` (stereo unspecified), for which the TGI in assay [1], in assay [2], in assay [3], in [4], in [5] and in assay [6] was greater than 100 µM throughout. The compound also yielded a TGI in [7] greater than 100 µM.
Turning to `O=C(Nc1ccc(N=Nc2ccccc2)cc1)Sc1ccccc1C(=O)O`, the TGI in assay [10] is greater than 100 µM; in assay [1], greater than 100 µM; in assay [2] it was greater than 100 µM; in assay [3] it was greater than 100 µM; in assay [4] it was 2.48 µM; in [5] it was greater than 100 µM. The TGI in assay [6] and in assay [7] was greater than 100 µM each time.
For the compound `COc1ccc(/C(Cl)=C(\C=O)c2cc(OC)c(OC)c(OC)c2)cc1OC`, the TGI in assay [10] is greater than 100 µM; in assay [1], greater than 100 µM; in [2], 87.9 µM; in [9], greater than 100 µM; in [3] it was greater than 100 µM; in assay [4] it was greater than 100 µM. In addition, the TGI was greater than 100 µM in assay [5], 58.6 µM in assay [6] and greater than 100 µM in assay [7].
As to `CCC12CC[C@H](C#N)N3CCc4c(n(c5ccccc45)C(=O)C1)C32` (stereo partly specified), the TGI in assay [1] amounted to 31.2 µM; in assay [2], 38.2 µM; in [3] it was 32.9 µM; in assay [4] it was 63.3 µM; in assay [5], 33.4 µM; in assay [7] it was 35 µM.
For `O[C@H]1[C@H]2[C@H](O)CCCN2C[C@H]1O`, the TGI in assay [1], in [2], in assay [3], in assay [4], in [5] and in assay [6] was greater than 100 µM in each case.

For the origin of these results see PubChem BioAssay (NCI).
